Among the data in ChEMBL document CHEMBL1255210, “Discovery of pyrrolopyridazines as novel DGAT1 inhibitors” (Bioorg Med Chem Lett, 2010) are IC50 values, retold here.

Assay [1] deals with T1, Sterol O-acyltransferase 1 (Homo sapiens, UniProt P35610).
T1 sequence (P35610 whole entry): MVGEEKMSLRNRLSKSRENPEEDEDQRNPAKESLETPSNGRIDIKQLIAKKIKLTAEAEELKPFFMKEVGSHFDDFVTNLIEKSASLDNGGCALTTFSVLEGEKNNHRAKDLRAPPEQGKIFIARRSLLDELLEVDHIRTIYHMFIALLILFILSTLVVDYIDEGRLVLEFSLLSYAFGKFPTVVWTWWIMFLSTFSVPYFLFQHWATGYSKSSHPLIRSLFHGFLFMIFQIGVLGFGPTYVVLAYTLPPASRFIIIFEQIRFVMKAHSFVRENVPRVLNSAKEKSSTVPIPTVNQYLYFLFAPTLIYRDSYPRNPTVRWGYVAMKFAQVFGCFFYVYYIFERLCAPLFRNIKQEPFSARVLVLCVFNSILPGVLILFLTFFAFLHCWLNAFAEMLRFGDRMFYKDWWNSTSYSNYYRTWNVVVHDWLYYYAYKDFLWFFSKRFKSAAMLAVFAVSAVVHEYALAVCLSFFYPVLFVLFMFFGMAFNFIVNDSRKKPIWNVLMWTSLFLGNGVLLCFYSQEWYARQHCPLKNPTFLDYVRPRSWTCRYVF
The experiment in a line: Inhibition of human full-length flag-tagged ACAT1 expressed in baculovirus infected insect cells after 10 mins.

Assay [2] addresses T2, Diacylglycerol O-acyltransferase 1 (Homo sapiens, UniProt O75907).
T2 sequence (O75907 whole entry): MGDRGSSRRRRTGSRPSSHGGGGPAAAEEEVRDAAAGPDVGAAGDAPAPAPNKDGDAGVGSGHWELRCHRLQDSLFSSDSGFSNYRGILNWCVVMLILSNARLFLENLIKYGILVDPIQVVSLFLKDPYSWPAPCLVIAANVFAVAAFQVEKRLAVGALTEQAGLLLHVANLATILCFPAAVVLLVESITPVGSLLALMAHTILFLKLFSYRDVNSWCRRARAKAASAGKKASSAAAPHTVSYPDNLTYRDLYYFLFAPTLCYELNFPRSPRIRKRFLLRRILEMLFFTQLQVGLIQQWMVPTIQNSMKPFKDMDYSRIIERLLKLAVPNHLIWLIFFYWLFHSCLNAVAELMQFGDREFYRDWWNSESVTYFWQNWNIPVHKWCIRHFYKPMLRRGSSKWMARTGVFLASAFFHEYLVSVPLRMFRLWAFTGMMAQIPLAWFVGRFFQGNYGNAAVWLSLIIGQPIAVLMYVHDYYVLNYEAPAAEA
The experiment in a line: Inhibition of human liver flag-tagged DGAT1 expressed in baculovirus infected insect cells after 2 hrs.

Assay [3] deals with T2, Diacylglycerol O-acyltransferase 1. The assay can be described thus: Inhibition of DGAT1 in human Caco-2 cells after 30 mins. It counts as cell-based.

The IC50 is the concentration needed to halve the response being measured. Turning to `CCCCc1c(C(=O)OCC)c(C(=O)OCC)c2c(-c3ccccc3)cc(N3CCOCC3)nn12`, the IC50 in assay [1] was below 300 nM; in assay [2] it was 160 nM.
The corresponding values for `CCOC(=O)c1c(C(=O)OCC)c2c(-c3ccccc3)cc(N3CCOCC3)nn2c1-c1ccc(O)cc1` are 1290 nM and 570 nM.
The like results for `CCOC(=O)c1c(C(=O)OCC)c2c(-c3ccccc3)cc(N3CCOCC3)nn2c1CCCOC` were, in that order, 2560 nM and 270 nM.
The like results for `CCCc1noc(-c2c(C(=O)OCC)c3c(-c4ccccc4)cc(N4CCOCC4)nn3c2CCC)n1` were, in that order, 260 nM and 65 nM.
Turning to `CCCc1c(C(=O)OCC)c(C(=O)OCC)c2c(-c3ccccc3)cc(N3CCCC3)nn12`, the IC50 is 1300 nM in assay [1] and 120 nM in assay [2].
`CCOC(=O)c1cn2nc(N3CCOCC3)cc(-c3ccccc3)c2c1C(=O)OCC` had an IC50 in assay [2] above 3000 nM.
Regarding `CCOC(=O)c1c(C(=O)OCC)c2c(-c3ccccc3)cc(N3CCOCC3)nn2c1C1CC1`, the IC50 in assay [1] was 3250 nM; in assay [2], 620 nM.
For `CCCc1c(-c2nc(-c3ccccc3)no2)c(C(=O)OCC)c2c(-c3ccccc3)cc(N3CCOCC3)nn12`, the IC50 in assay [1] came out at 1590 nM; in assay [3], 200 nM; in assay [2], 180 nM.
`CCCc1c(C(=O)OCC)c(C(=O)OCC)c2c(C3CCCCC3)cc(N3CCOCC3)nn12` gave a concentration for half-maximal inhibition (IC50) in assay [2] above 3000 nM.
On to `CCOC(=O)c1c(C(=O)OCC)c2c(-c3ccccc3)cc(N3CCOCC3)nn2c1CC`, for which the IC50 in assay [1] is 2170 nM; in assay [2], 240 nM.
The corresponding values for `CCOC(=O)c1c(C(=O)OCC)c2c(-c3ccccc3)cc(N3CCOCC3)nn2c1C` are 2590 nM and 520 nM.
The compound `CCCc1c(C(=O)OCC)c(C(=O)OCC)c2c(C3CCC3)cc(N3CCOCC3)nn12` displayed an IC50 in assay [2] above 3000 nM.
`CCCc1c(-c2nc(CC)no2)c(C(=O)OCC)c2c(-c3ccccc3)cc(N3CCOCC3)nn12`: the IC50 was below 1000 nM in assay [1] and 110 nM in assay [2].
The corresponding values for `CCCc1c(C(=O)OCC)c(C(=O)OCC)c2c(-c3ccccc3F)cc(N3CCOCC3)nn12` are 1490 nM and 570 nM.
The corresponding values for `C=CCc1c(C(=O)OCC)c(C(=O)OCC)c2c(-c3ccccc3)cc(N3CCOCC3)nn12` are 1400 nM and 75 nM.
As for `CCCc1c(-c2nc(CCO)no2)c(C(=O)OCC)c2c(-c3ccccc3)cc(N3CCOCC3)nn12`, the half-maximal inhibitory concentration (IC50) in assay [1] was 1050 nM; in assay [3], 260 nM; in assay [2], 180 nM.
In assay [2], `CCOC(=O)c1c(C(=O)OCC)c2c(-c3ccccc3)cc(N3CCOCC3)nn2c1CCCO` yielded an IC50 above 1000 nM.
Turning to `CCCc1c(C(=O)OCC)c(C(=O)OCC)c2c(-c3ccccc3)cc(N3CCC3)nn12`, the IC50 is 1490 nM in assay [1] and 1360 nM in assay [2].
The like results for `CCOC(=O)c1c(C(=O)OCC)c2c(-c3ccccc3)cc(N3CCOCC3)nn2c1-c1ccc(-c2ccccc2)cc1` were, in that order, below 300 nM and 250 nM.
Consider `CCOC(=O)c1c(C(=O)OCC)c2c(-c3ccccc3)cc(N3CCOCC3)nn2c1CCCN(C)C`, for which, in assay [2], the IC50 is above 1000 nM.
`CCCCc1noc(-c2c(C(=O)OCC)c3c(-c4ccccc4)cc(N4CCOCC4)nn3c2CCC)n1`: the IC50 was below 1000 nM in assay [1], 69 nM in assay [3] and 73 nM in assay [2].
In the case of `CCCc1c(C(=O)OCC)c(C(=O)OCC)c2c(-c3ccccc3)cc(N3CCOCC3)nn12`, the 50% inhibitory concentration (IC50) was 1300 nM in assay [1] and 120 nM in assay [2].
`CCCc1c(C(=O)OCC)c(C(=O)OCC)c2c(-c3ccccc3)cc(N3C[C@@H](C)O[C@@H](C)C3)nn12` yielded an IC50 in assay [2] above 3000 nM.
Turning to `CCOC(=O)c1c(C(=O)OCC)c2c(-c3ccccc3)cc(N3CCOCC3)nn2c1COC`, the IC50 in assay [1] came to 8750 nM; in assay [2], 240 nM.
In turn, `CCCc1c(C(=O)OCC)c(C(=O)OCC)c2c(C(C)(C)C)cc(N3CCOCC3)nn12` showed an IC50 in assay [2] above 3000 nM.
In the case of `CCOC(=O)c1c(C(=O)OCC)c2c(-c3ccccc3)cc(N3CCOCC3)nn2c1-c1ccc(OCc2ccccc2)cc1`, the IC50 is below 100 nM in assay [1] and 60 nM in assay [2].
As to `CCCc1cc(N2CCOCC2)nn2c(CCC)c(C(=O)OCC)c(C(=O)OCC)c12`, the IC50 in assay [2] was above 3000 nM.
Regarding `CCCc1c(-c2nc(C(C)C)no2)c(C(=O)OCC)c2c(-c3ccccc3)cc(N3CCOCC3)nn12`, the IC50 in assay [1] is below 1000 nM; in assay [3], 51 nM; in assay [2] it was 57 nM.
The compound `CCCc1c(C(=O)OCC)c(C(=O)OCC)c2c(C3CCCC3)cc(N3CCOCC3)nn12` yielded an IC50 in assay [2] above 3000 nM.
For `CCOC(=O)c1c(C(=O)OCC)c2c(-c3ccccc3)cc(N3CCOCC3)nn2c1-c1ccc(N)cc1`, the values for the half-inhibitory concentration (IC50) in assay [1] and in assay [2] were 1050 nM and 630 nM, respectively.
The like results for `CCCCCc1noc(-c2c(C(=O)OCC)c3c(-c4ccccc4)cc(N4CCOCC4)nn3c2CCC)n1` were, in that order, below 1000 nM and 110 nM.
